Assays:
[1] = molecular target: JAK1 (recombinant purified GST-tagged catalytic domain) (Homo sapiens (Human), UniProt P23458); assay: biochemical;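 note: biochemical assay with HTRF read-out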
[2] = molecular target: JAK2 (recombinant purified GST-tagged catalytic domain) (Homo sapiens (Human), UniProt O60674); assay: biochemical;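 note: biochemical JAK kinase assay with HTRF detection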
Sequence of JAK2 (recombinant purified GST-tagged catalytic domain) (O60674 849-1124): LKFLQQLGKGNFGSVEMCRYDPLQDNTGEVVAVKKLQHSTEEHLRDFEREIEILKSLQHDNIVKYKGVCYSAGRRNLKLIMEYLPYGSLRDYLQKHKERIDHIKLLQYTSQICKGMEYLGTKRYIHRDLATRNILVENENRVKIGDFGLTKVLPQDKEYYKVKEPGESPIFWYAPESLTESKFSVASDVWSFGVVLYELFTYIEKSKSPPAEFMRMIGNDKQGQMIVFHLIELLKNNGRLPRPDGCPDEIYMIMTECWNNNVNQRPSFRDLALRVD

Sequence of JAK1 (recombinant purified GST-tagged catalytic domain) (P23458 875-1153): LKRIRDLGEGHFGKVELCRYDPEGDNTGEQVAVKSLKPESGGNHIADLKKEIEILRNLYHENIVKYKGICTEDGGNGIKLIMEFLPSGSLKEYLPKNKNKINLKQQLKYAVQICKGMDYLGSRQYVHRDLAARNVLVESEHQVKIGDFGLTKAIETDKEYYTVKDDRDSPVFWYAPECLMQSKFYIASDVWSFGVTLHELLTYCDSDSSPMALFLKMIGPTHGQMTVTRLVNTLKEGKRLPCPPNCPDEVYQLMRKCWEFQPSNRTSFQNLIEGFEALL

IC50 [1] [nM]	IC50 [2] [nM]	Compound
260	> 1500	N#C[C@H]1C[C@H](N(CC2CC2)CC2CC2)CC[C@@H]1n1cc(C(N)=O)c(Nc2ccc(C(F)(F)F)cc2)n1 (single isomer, unassigned) [Example 30-15, l-{(1S,2S,4R or 1R,2R,4S)-4-[bis(cyclopropylmethyl)amino]-2-cyanocyclohexyl}-3-{[4-(trifluoromethyl)phenyl]amino}-1H-pyrazole-4-carboxamide]
0.3	6	N#C[C@H]1C[C@@H](N2CCOCC2)CCC1n1cc(C(N)=O)c(Nc2ccc(S(=O)(=O)C(F)(F)F)cc2)n1 (mixture of isomers) [Example 27-13, 1-[(1S,2S,4S and 1R,2R,4R)-2-cyano-4-(morpholin-4-yl)cyclohexyl]-3-({4-[(trifluoromethyl)sulfonyl]phenyl)amino)-1H-pyrazole-4-carboxamide]
0.4	1	N#C[C@@H]1CCCC[C@H]1n1cc(C(N)=O)c(Nc2ccc(S(=O)(=O)NCCN3CCOCC3)cc2)n1 (single isomer, unassigned) [Example 17-68, 1-[(1R,2R or 1S,2S)-2-cyanocyclohexyl]-3-({4-[(2-morpholin-4-ylethyl)sulfamoyl]phenyl}amino)-1H-pyrazole-4-carboxamide]
4	17	N#C[C@H]1C[C@H](O)CC[C@@H]1n1cc(C(N)=O)c(Nc2ccc(C(F)(F)F)nc2)n1 (single isomer, unassigned) [Example 25-10, 1-[(1S,2S,4R or 1R,2R,4S)-2-cyano-4-hydroxycyclohexyl]-3-{[6-(trifluoromethyl)pyridin-3-yl]amino}-1H-pyrazole-4-carboxamide]
3	10	N#C[C@H]1CCCC[C@@H]1n1cc(C(N)=O)c(Nc2ccc(CN)cc2)n1 (racemic) [Example 17-45, 3-{[4-(aminomethyl)phenyl]amino}-1-[(1S,2S and 1R,2R)-2-cyanocyclohexyl]-1H-pyrazole-4-carboxamide]
370	1000	N#C[C@H]1CCC[C@@H](O)C1n1cc(C(N)=O)c(Nc2ccccc2)n1 (mixture of isomers) [Example 2-6, 1-[(1R,2S,6R and 1S,2R,6S)-2-cyano-6-hydroxycyclohexyl]-3-(phenylamino)-1H-pyrazole-4-carboxamide]
13	169	N#C[C@@H]1C[C@H](C(=O)NC(C2CC2)C2CC2)CC[C@H]1n1cc(C(N)=O)c(Nc2ccc(Cl)cc2)n1 (single isomer, unassigned) [Example 35-5, 3-[(4-chlorophenyl)amino]-1-{(1R,2R,4R or 1S,2S,4S)-2-cyano-4-[(dicyclopropylmethyl)carbamoyl]cyclohcxyl}-1H-pyrazole-4-carboxamide]
0.75	39	N#C[C@H]1C[C@@H](N2CCC2)CC[C@@H]1n1cc(C(N)=O)c(Nc2ccccc2)n1 (single isomer, unassigned) [Example 28-4, 1-((1R,2R,4R or 1S,2S,4S)-4-(Azetidin-1-yl)-2-cyanocyclohexyl)-3-(phenylamino)-1H-pyrazole-4-carboxamide]
0.3	9	N#C[C@H]1C[C@@H](NCc2ccccc2)CC[C@@H]1n1cc(C(N)=O)c(Nc2ccnc(F)c2)n1 (single isomer, unassigned) [Example 28-97, 1-[(1S,2S,4S or 1R,2R,4R)-4-(benzylamino)-2-cyanocyclohexyl]-3-[(2-fluoropyridin-4-yl)amino]-1H-pyrazole-4-carboxamide]
0.5	2	N#C[C@H]1CCCC[C@@H]1n1cc(C(N)=O)c(Nc2ccc(S(=O)(=O)NCc3ccccc3Cl)cc2)n1 (single isomer, unassigned) [Example 17-91, 3-({4-[(2-chlorobenzyl)sulfamoyl]phenyl}amino)-1-[(1R,2R or 1S,2S)-2-cyanocyclohexyl]-1H-pyrazole-4-carboxamide]
2	42	CC(C)(O)CN[C@H]1CCC(n2cc(C(N)=O)c(Nc3ccc(Cl)cc3)n2)[C@@H](C#N)C1 (single isomer, unassigned) [Example 28-221, 3-[(4-chlorophenyl)amino]-1-{(1S,2S,4S or 1R,2R,4R)-2-cyano-4-[(2-hydroxy-2-methylpropyl)amino]cyclo-hexyl}-1H-pyrazole-4-carboxamide]
	16	N#C[C@H]1C[C@@H](N2CCC2)CC[C@@H]1n1cc(C(N)=O)c(Nc2ccc(C=O)cc2)n1 (single isomer, unassigned) [Example 28-66, 1-[(1S,2S,4S or 1R,2R,4R)-4-azetidin-1-yl-2-cyanocyclohexyl]-3-[(4-formylphenyl)amino]-1H-pyrazole-4-carboxamide]
	49	CC(C)(C)OC(=O)NC1CC[C@H](C#N)C(n2cc(C(N)=O)c(Nc3ccc(F)cc3)n2)C1 (mixture of isomers) [Example 11-3, tert-butyl [(1R,3S,4S and 1S,3R,4R) or (1S,3S,4S and 1R,3R,4R)-3-{4-carbamoyl-3-[(4-fluorophenyl)amino]-1H-pyrazol-1-yl}-4-cyanocyclohexyl]carbamate]
	35	CC1(CN[C@H]2CC[C@H](n3cc(C(N)=O)c(Nc4ccc(C(F)(F)F)cc4)n3)[C@@H](C#N)C2)COC1 (single isomer, unassigned) [Example 28-26, 1-[(1S,2S,4S or 1R,2R,4R)-2-cyano-4-{[(3-methyloxetan-3-yl)methyl]amino}cyclohexyl]-3-{[4-(trifluoromethyl)phenyl]amino}-1H-pyrazole-4-carboxamide]
	11	CC(C)(c1ccc(Nc2nn([C@H]3CCCC[C@@H]3C#N)cc2C(N)=O)cc1F)[C@H](O)C(F)(F)F (single isomer, unassigned) [Example 17-32, 1-[(1S,2S or 1R,2R)-2-cyanocyclohexyl]-3-({3-fluoro-4-[(2S or 2R)-3,3,3-trifluoro-2-hydroxy-1,1-dimethylpropyl]phenyl}amino)-1H-pyrazole-4-carboxamide]
	6	CN(CC(F)(F)F)[C@H]1CCC(n2cc(C(N)=O)c(Nc3ccnc(F)c3)n2)[C@@H](C#N)C1 (single isomer, unassigned) [Example 28-233, 1-{(1S,2S,4S or 1R,2R,4R)-2-cyano-4-[methyl(2,2,2-trifluoroethyl)amino]cyclo-hexyl}-3-[(2-fluoropyridin-4-yl)amino]-1 H-pyrazole-4-carboxamide]
	5	CC1(C)CN([C@H]2CC[C@H](n3cc(C(N)=O)c(Nc4ccc([C@H](O)C(F)(F)F)cc4)n3)[C@@H](C#N)C2)C1 (single isomer, unassigned) [Example 28-93, 1-[(1S,2S,4S or 1R,2R,4R)-2-cyano-4-(3,3-dimethylazetidin-1-yl)cyclohexyl]-3-({4-[(1S or 1R)-2,2,2-trifluoro-1-hydroxyethyl]phenyl}amino)-1H-pyrazole-4-carboxamide]
	4	N#C[C@H]1C[C@@H](NCC(F)F)CC[C@@H]1n1cc(C(N)=O)c(Nc2ccc(S(=O)(=O)C(F)(F)F)cc2)n1 (single isomer, unassigned) [Example 28-165, 1-{(1S,2S,4S or 1R,2R,4R)-2-cyano-4-[(2,2-difluoroethyl)amino]cyclohexyl}-3-({4-[(trifluoro-methyl)sulfonyl]phenyl}amino)-1H-pyrazole-4-carboxamide]
	20	CC(C)(C)OC(=O)NC1CC[C@@H](C#N)C(n2cc(C(N)=O)c(Nc3ccc(F)cc3)n2)C1 (mixture of isomers) [Example 11-4, tert-butyl [(3R,4S and 3S,4R)-3-{4-carbamoyl-3-[(4-fluorophenyl)amino]-1H-pyrazol-1-yl}-4-cyanocyclohexyl]carbamate]
	26	CN[C@H]1CC[C@H](n2cc(C(N)=O)c(Nc3ccc(Cl)c(F)c3)n2)[C@@H](C#N)C1 (single isomer, unassigned) [Example 28-43, 3-[(4-chloro-3-fluorophenyl)amino]-1-[(1S,2S,4S or 1R,2R,4R)-2-cyano-4-(methylamino)cyclohexyl]-1H-pyrazole-4-carboxamide]
	22	CC1(N[C@H]2CCC(n3cc(C(N)=O)c(Nc4ccc(Cl)cc4)n3)[C@@H](C#N)C2)COC1 (single isomer, unassigned) [Example 28-207, 3-[(4-chlorophenyl)amino]-1-{(1S,2S,4S or 1R,2R,4R)-2-cyano-4-[(3-methyloxetan-3-yl)amino]cyclohexyl}-1H-pyrazole-4-carboxamide]
	22	CC(C)(C)OC(=O)NC1CC[C@H](C#N)C(n2cc(C(N)=O)c(Nc3ccc(F)cc3)n2)C1 (mixture of isomers) [Example 11-5, tert-butyl [(1R,3S,4S and 1S,3R,4R) or (1S,3S,4S and 1R,3R,4R)-3-{4-carbamoyl-3-[(4-fluorophenyl)amino]-1H-pyrazol-1-yl}-4-cyanocyclohexyl]carbamate]
	47	CC1(CN[C@H]2CCC(n3cc(C(N)=O)c(Nc4ccc(Cl)cc4)n3)[C@@H](C#N)C2)COC1 (single isomer, unassigned) [Example 28-217, 3-[(4-chlorophenyl)amino]-1-[(1S,2S,4S or 1R,2R,4R)-2-cyano-4-{[(3-methyloxetan-3-yl)methyl]amino}cyclohexyl]-1H-pyrazole-4-carboxamide]
	22	N#C[C@H]1C[C@@H](NC2CC2)CC[C@@H]1n1cc(C(N)=O)c(Nc2ccc(C(F)(F)F)cc2)n1 (single isomer, unassigned) [Example 28-137, 1-[(1S,2S,4S or 1R,2R,4R)-2-cyano-4-(cyclopropylamino)cyclohexyl]-3-{[4-(trifluoromethyl)phenyl]amino}-1H-pyrazole-4-carboxamide]
	33	N#C[C@H]1CCCC[C@@H]1n1cc(C(N)=O)c(Nc2ccc(S(=O)(=O)Nc3ccc4cccnc4c3)cc2)n1 (single isomer, unassigned) [Example 17-94, 1-[(1R,2R or 1S,2S)-2-cyanocyclohexyl]-3-{[4-(quinolin-7-ylsulfamoyl)phenyl]amino}-1H-pyrazole-4-carboxamide]
